# Laboratory results as given in ChEMBL document CHEMBL4118066, “QSAR-driven design, synthesis and discovery of potent chalcone derivatives with antitubercular activity” (Eur J Med Chem, 2017).
# How the values were obtained:
# in vitro = details: monkey
# Description: Selectivity index, ratio of IC50 for African green monkey Vero cells to MIC90 for Mycobacterium tuberculosis H37Rv ATCC 27294 under normoxic condition
# Mycobacterium avium = assay: Antimycobacterial activity against Mycobacterium avium ATCC 15769 after 7 days under normoxic condition by microplate Alamar blue assay; format: functional; details: ATCC 15769, 168 h
# [1] = system: Mycobacterium tuberculosis; assay: microbe, parasite or virus in culture; format: functional; details: H37Rv ATCC 27294, 168 h
# Description: Antitubercular activity against Mycobacterium tuberculosis H37Rv ATCC 27294 after 7 days under normoxic condition by microplate Alamar blue assay
# Candida albicans = assay: Antifungal activity against Candida albicans ATCC 90028 after 36 to 48 hrs; format: functional
# Escherichia coli = assay: Antibacterial activity against Escherichia coli ATCC 25922 after 16 to 20 hrs; format: functional
# [2] = system: Mycolicibacterium smegmatis; assay: Antimycobacterial activity against Mycobacterium smegmatis ATCC MC2155 after 7 days under normoxic condition by microplate Alamar blue assay; format: functional; details: str. MC2 155, 168 h
# Staphylococcus aureus = assay: Antibacterial activity against Staphylococcus aureus ATCC 29213 after 16 to 20 hrs; format: functional
# Mycobacterium marinum = assay: Antimycobacterial activity against Mycobacterium marinum ATCC 927 after 7 days under normoxic condition by microplate Alamar blue assay; format: functional; details: ATCC 927, 168 h
# Mycobacteroides chelonae = assay: Antimycobacterial activity against Mycobacterium chelonae ATCC 35752 after 7 days under normoxic condition by microplate Alamar blue assay; format: functional; details: ATCC 35752, 168 h
# [3] = system: Mycobacterium tuberculosis; assay: Antitubercular activity against Mycobacterium tuberculosis H37Rv ATCC 27294 treated for 10 days under hypoxic condition followed by 28 hrs of normoxic recovery; format: functional
# Mycobacterium kansasii = assay: Antimycobacterial activity against Mycobacterium kansasii ATCC 12478 after 7 days under normoxic condition by microplate Alamar blue assay; format: functional; details: ATCC 12478, 168 h
# [4] = system: Mycobacteroides abscessus; assay: Antimycobacterial activity against Mycobacterium abscessus ATCC 19977 after 7 days under normoxic condition by microplate Alamar blue assay; format: functional; details: ATCC 19977, 168 h
SMILES,selectivity ratio (in vitro; Vero cells),MIC90 (Mycobacterium avium) [µM],MIC90 [1] [µM],MIC90 (Candida albicans) [µM],MIC90 (Escherichia coli) [µM],MIC90 [2] [µM],MIC90 (Staphylococcus aureus) [µM],MIC90 (Mycobacterium marinum) [µM],MIC90 (Mycobacteroides chelonae) [µM],MIC90 [3] [µM],MIC90 (Mycobacterium kansasii) [µM],MIC90 [4] [µM],selectivity ratio (in vitro; vero)
CCCCc1ccc(C(=O)/C=C/c2ccc([N+](=O)[O-])s2)cc1,81,2.14,0.54,> 10,> 10,> 10,> 10,> 10,> 10,5.56,1.73,> 10,
O=C(/C=C/c1ccc([N+](=O)[O-])o1)c1ccc(N2CCNCC2)cc1,359,,0.27,> 10,> 10,> 10,> 10,,,9.67,,,
O=C(/C=C/c1ccc([N+](=O)[O-])cc1)c1ccc(N2CCCCC2)cc1,,> 10,> 10,> 10,> 10,> 10,> 10,> 10,> 10,> 10,> 10,> 10,
O=C(/C=C/c1ccc([N+](=O)[O-])o1)c1ccc(N2CCCC2)cc1,,> 10,> 10,> 10,> 10,> 10,> 10,> 10,> 10,4.3,0.39,> 10,
O=C(/C=C/c1ccc([N+](=O)[O-])o1)c1ccc(N2CCOCC2)cc1,123,,0.81,> 10,> 10,> 10,1.19,,,9.85,,,
O=C(/C=C/c1ccc([N+](=O)[O-])o1)c1ccc(-n2ccnc2)cc1,94,,1.05,> 10,3.18,> 10,0.34,,,6.94,,,
CC(C)(C)c1ccc(C(=O)/C=C/c2ccc[nH]2)cc1,,> 10,> 10,> 10,> 10,> 10,> 10,> 10,> 10,> 10,> 10,> 10,
Cc1cccc(C(=O)/C=C/c2ccc([N+](=O)[O-])o2)c1,43,1.92,1.27,> 10,> 10,> 10,2.23,2.39,> 10,4.75,0.49,> 10,
O=C(/C=C/c1ccc([N+](=O)[O-])s1)c1ccc(N2CCOCC2)cc1,,> 10,> 10,> 10,> 10,> 10,> 10,> 10,> 10,> 10,8.27,> 10,
CSc1ccc(C(=O)/C=C/c2ccc([N+](=O)[O-])o2)cc1,61,1.39,0.66,> 10,> 10,4.81,0.58,> 10,4.66,5.07,0.3,> 10,
NNC(=O)c1ccncc1 [ISONIAZID],,,0.41,,,> 10,,,,> 256,,,
O=C(/C=C/c1ccc([N+](=O)[O-])s1)c1ccc(C2CCCCC2)cc1,,5.99,> 10,> 10,> 10,> 10,> 10,> 10,> 10,5.75,9.26,> 10,
O=C(/C=C/c1ccco1)c1ccc(N2CCCCC2)cc1,,> 10,> 10,> 10,> 10,> 10,> 10,> 10,> 10,> 10,> 10,> 10,
Cc1ccc(C(=O)/C=C/c2ccc([N+](=O)[O-])s2)cc1,,2.3,1.87,> 10,> 10,> 10,> 10,> 10,> 10,2.05,1.54,> 10,
CC(C)(C)c1ccc(C(=O)/C=C/c2ccco2)cc1,,> 10,> 10,> 10,> 10,> 10,> 10,> 10,> 10,> 10,> 10,> 10,
O=C(/C=C/c1ccc([N+](=O)[O-])o1)c1ccc(C2CCCCC2)cc1,122,,0.81,> 10,> 10,> 10,> 10,,,3.33,,,
O=C(/C=C/c1ccc([N+](=O)[O-])s1)c1ccc(-n2ccnc2)cc1,225,2.1,0.19,> 10,> 10,4.39,0.28,> 10,1.63,1.73,0.56,4.7,
CC(C)(C)c1ccc(C(=O)/C=C/c2ccc([N+](=O)[O-])o2)cc1,284,,0.35,> 10,> 10,> 10,> 10,,,> 10,,,
CCCCc1ccc(C(=O)/C=C/c2ccc([N+](=O)[O-])o2)cc1,57,3.07,1.31,> 10,> 10,> 10,2.23,> 10,> 10,4.21,0.58,> 10,
CSc1ccc(C(=O)/C=C/c2ccco2)cc1,,> 10,> 10,> 10,> 10,> 10,> 10,> 10,> 10,> 10,> 10,> 10,
CN(C)c1ccc(/C=C/C(=O)c2ccc(-c3ccccc3)cc2)cc1,,> 10,> 10,> 10,> 10,> 10,> 10,> 10,> 10,> 10,> 10,> 10,
O=C(/C=C/c1ccc([N+](=O)[O-])o1)c1ccc(N2CCCCC2)cc1,,,3.42,> 10,> 10,> 10,> 10,,,10.9,,,
COc1ccc(/C=C/C(=O)c2ccc(-c3ccccc3)cc2)cc1,,> 10,> 10,> 10,> 10,> 10,1.18,> 10,> 10,> 10,> 10,> 10,
C[C@@H]1[C@H](O)[C@@H](C)/C=C/C=C/C=C/C=C/C=C/C=C/C=C/[C@H](O[C@@H]2O[C@H](C)[C@@H](O)[C@H](N)[C@@H]2O)C[C@@H]2O[C@](O)(C[C@@H](O)C[C@@H](O)[C@H](O)CC[C@@H](O)C[C@@H](O)CC(=O)O[C@H]1C)C[C@H](O)[C@H]2C(=O)O [AMPHOTERICIN B],,,,< 0.004,,,,,,,,,
CO[C@H]1/C=C/O[C@@]2(C)Oc3c(C)c(O)c4c(O)c(c(/C=N/N5CCN(C)CC5)c(O)c4c3C2=O)NC(=O)/C(C)=C\C=C\[C@H](C)[C@H](O)[C@@H](C)[C@@H](O)[C@@H](C)[C@H](OC(C)=O)[C@@H]1C [RIFAMPIN],,,0.05,,,> 10,,,,0.19,,,2000
O=C(/C=C/c1ccc([N+](=O)[O-])o1)c1ccc(Br)cc1,,,2.5,4.93,> 10,7.12,0.36,,,6.76,,,
CC1(C)S[C@@H]2[C@H](NC(=O)[C@H](N)c3ccccc3)C(=O)N2[C@H]1C(=O)O [AMPICILLIN],,,,,1.18,,0.25,,,,,,
O=C(/C=C/c1cccc([N+](=O)[O-])c1)c1ccc(N2CCCCC2)cc1,,> 10,> 10,> 10,> 10,> 10,> 10,> 10,> 10,> 10,> 10,> 10,
O=C(/C=C/c1ccc(Cl)s1)c1ccc(-n2ccnc2)cc1,,> 10,9.29,> 10,> 10,> 10,> 10,> 10,> 10,9.75,9.17,> 10,
